# Assay results published in patent US20220265817A1, “THERAPEUTIC COMPOSITIONS AND METHODS FOR TREATING HEPATITIS B” (priority 2017, published 2022).
# Values joined by “and” are separate entries in the source; they are usually repeats but may differ in a detail not shown here. Equal entries are not always repeated. Where two headings read alike, the source gives them in different places.
# Assays:
# [1] = system: HBV rcDNA in HepDE19 cells; assay: HepDE19 cell culture system, rcDNA quantitation using bDNA assay, MacSynergy II; type: cell-based, human hepatoma cell line
# [2] = system: D type HBV in primary human hepatocytes; assay: microbe, parasite or virus in culture; type: cell-based; settings: 3 replicates; Compound 24 0.00 nM; TDF nM: 10.00, 3.33, 1.11, 0.37, 0.12
# Outline: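 Percoll-purified hepatocytes infected with genotype D HBV on day 1, then treated from day 2 with compound refreshed every other day; supernatant HBV DNA quantified by qPCR on day 8. Single agents run at 7 concentrations, 3-fold dilutions, triplicate; combinations in 5×5 matrix, analysed with MacSynergy.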
# [3] = system: D type HBV in primary human hepatocytes (HBsAg); assay: microbe, parasite or virus in culture; type: cell-based
# Outline: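 PHHs isolated by liver perfusion and Percoll, infected with genotype D HBV on day 1; compounds added day 2 and refreshed every other day. Supernatant HBsAg on day 8 by ELISA, % inhibition vs DMSO control. Seven 3-fold concentrations in triplicate; combinations as 5×5 matrix.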
# [4] = Hepatitis B virus, HepDE19, read-out: ADDITIVE INHIBITION
# [5] = Hepatitis B virus, HepDE19, read-out: AVERAGE % INHIBITION (rcDNA)
structure (smiles),measurement,setting,value
"CC(C)OC(=O)OCOP(=O)(CO[C@H](C)Cn1cnc2c(N)ncnc21)OCOC(=O)OC(C)C.O=C(O)/C=C/C(=O)O [TDF, tenofovir disoproxil fumarate, reference compound]",SYNERGY PLOT (99.9%) […]. 96%,[1],0
same,inhibition at 0.004 µM,"[1]; Hepatitis B virus, HepDE19",-5.27%
same,inhibition at 0.008 µM,"[1]; Hepatitis B virus, HepDE19",0.67%
same,inhibition at 0.016 µM,"[1]; Hepatitis B virus, HepDE19",2.82%
same,inhibition at 0.031 µM,"[1]; Hepatitis B virus, HepDE19",6.57%
same,inhibition at 0.063 µM,"[1]; Hepatitis B virus, HepDE19",41.7%
same,inhibition at 0.003906 µM,[1]; [4],-5.27%
same,inhibition at 0.00781 µM,[1]; [4],0.67%
same,inhibition at 0.01563 µM,[1]; [4],2.82%
same,inhibition at 0.03125 µM,[1]; [4],6.57%
same,inhibition at 0.0625 µM,[1]; [4],41.7%
same,inhibition at 0.125 µM,[1]; [4],66.1%
same,inhibition at 0.25 µM,[1]; [4],81.5%
same,inhibition at 0.5 µM,[1]; [4],90.8%
same,inhibition at 1 µM,[1]; [4],94.5%
same,inhibition at 0.125 µM,[1]; [5],66.1%
same,inhibition at 0.25 µM,[1]; [5],81.5%
same,inhibition at 0.5 µM,[1]; [5],90.8%
same,inhibition at 1 µM,[1]; [5],94.5%
same,EC50,"[1]; Hepatitis B virus, HepDE19, read-out: Inhibitor B EC50",89 nM
same,EC50,"[1]; Hepatitis B virus, HepDE19, rcDNA by bDNA assay, single agent, read-out: INHIBITOR B EC50",88 nM
same,AVERAGE % INHIBITION HBV DNA,[2],−6.24% and −1.16% and −15.4% and 3.15%
same,AVERAGE % INHIBITION (HBsAg),"[3]; 3 replicates, Compound 24 0.00 nM, TDF nM: 10.00, 3.33, 1.11, 0.37, 0.12",−3.32% and −3.31% and −6.65% and −1.28% and −3.54%
same,inhibition at 0.00012 µM,"[3]; Hepatitis B virus, Hepatocyte, TDF 0.12 nM alone, read-out: AVERAGE % INHIBITION HBsAg",3.39%
same,inhibition at 0.00037 µM,"[3]; Hepatitis B virus, Hepatocyte, TDF 0.37 nM alone, read-out: AVERAGE % INHIBITION HBsAg",-0.3%
same,inhibition at 0.00333 µM,"[3]; Hepatitis B virus, Hepatocyte, read-out: AVERAGE % INHIBITION HBsAg, TDF 3.33 nM alone",-0.9%
same,inhibition at 0.01 µM,"[3]; Hepatitis B virus, Hepatocyte, read-out: AVERAGE % INHIBITION HBsAg, TDF 10.00 nM alone",-5.9%
same,EC50,"[3]; Hepatitis B virus, Hepatocyte, read-out: Inhibitor A EC50",> 100 nM
same,ADDITIVE INHIBITION (HBsAg),"[3]; expected from additive interaction, Compound 24 0.00 nM, TDF nM by row: r27 10.00, r28 3.33, r29 1.11, r30 0.37, r31 0.12",−6.65% and −1.28% and −3.54% and −3.32% and −3.31%
